Laboratory results taken from paper PMC9270327 (Communications Biology, 2022).
Where a name gives a salt, the structure may show the parent alone. Read-outs that look alike come from different tables or passages of the source.

Assays:
[1] = molecular target: T1, recombinant human matriptase (Homo sapiens, UniProt Q9Y5Y6); experiment: Enzyme inhibition assay with purified matriptase (Ki, dose-response); assay type: biochemical; conditions: for matriptase activity, Mean (Fig. 2b): normalized, 0 nM = 100
T1 construct: purchased R&D Systems (Minneapolis, MN, USA)
T1 sequence (Q9Y5Y6 1-855): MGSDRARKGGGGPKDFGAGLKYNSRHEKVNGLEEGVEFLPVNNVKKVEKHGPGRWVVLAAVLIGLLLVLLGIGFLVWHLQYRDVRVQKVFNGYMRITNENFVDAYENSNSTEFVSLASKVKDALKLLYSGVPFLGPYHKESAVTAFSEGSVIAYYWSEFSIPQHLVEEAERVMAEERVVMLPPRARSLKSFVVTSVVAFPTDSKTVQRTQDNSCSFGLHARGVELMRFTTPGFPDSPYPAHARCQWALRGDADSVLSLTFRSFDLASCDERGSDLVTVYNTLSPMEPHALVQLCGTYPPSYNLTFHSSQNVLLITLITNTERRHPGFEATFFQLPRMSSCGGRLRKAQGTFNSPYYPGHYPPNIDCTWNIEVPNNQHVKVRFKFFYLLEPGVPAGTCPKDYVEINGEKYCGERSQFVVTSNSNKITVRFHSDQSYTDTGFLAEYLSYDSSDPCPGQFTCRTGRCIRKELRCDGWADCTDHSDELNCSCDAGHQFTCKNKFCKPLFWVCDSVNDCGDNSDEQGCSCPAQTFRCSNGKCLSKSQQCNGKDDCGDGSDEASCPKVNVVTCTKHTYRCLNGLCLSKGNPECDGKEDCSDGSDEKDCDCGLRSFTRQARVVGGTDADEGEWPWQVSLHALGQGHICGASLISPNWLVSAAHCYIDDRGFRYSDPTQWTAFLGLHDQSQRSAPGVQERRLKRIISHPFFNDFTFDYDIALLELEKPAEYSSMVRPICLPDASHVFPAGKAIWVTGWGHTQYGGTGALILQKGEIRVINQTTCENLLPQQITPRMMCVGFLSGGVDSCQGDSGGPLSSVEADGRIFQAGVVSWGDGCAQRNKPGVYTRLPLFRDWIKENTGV

[2] = test system: SARS-CoV-2 Beta (B.1.351), Caco-2 cells; assay type: cell-based
[3] = test system: lentiviral pseudoparticles carrying SARS-CoV-2 Delta (B.1.617.2) spike, Caco-2 cells; assay type: cell-based; conditions: for SARS-CoV-2 spike driven entry, Mean (0 nM = 100): Fig. 5d
[4] = molecular target: TMPRSS2 (Homo sapiens, UniProt O15393); experiment: Cell culture medium stability: residual TMPRSS2 inhibition after incubation in medium
Procedure: The activity of the compounds against the recombinant human enzymes was determined in enzyme inhibition assays. […] The measurements were performed on a Tecan infinite® M1000 and the fluorescence intensity was measured by exciting the AMC fluorophore at 380 nm wavelength and recording emission at 460 nm wavelength. […] Fluorescence intensities and absorption were measured every 2 min for 2 h or as endpoint after 2 h. […] To determine the IC50 values, the concentration-response data were plotted with the program GraphPad prism version 8.4.2 (San Diego, California) and a nonlinear regression fit with the equation [Inhibitor] vs. normalized response was applied. The inhibitory constant Ki was calculated from the IC50 values using the Cheng–Prusoff equation (Ki = IC50/[S]/KM) for competitive reversible inhibitors[66].
The stability of the inhibitors was measured according to a modified procedure from ref. [67]. […] At indicated timepoints, 100 µL samples were taken and mixed with 200 µL of ethanol to precipitate proteins. […] The supernatant was aspirated and analyzed using analytical HPLC. The residual inhibitory constants Ki after incubation was assessed by mixing serial dilutions of the inhibitor with recombinant TMPRSS2 as described above.
were mixed with recombinant TMPRSS2, followed by the addition of the fluorogenic reference
Shown are the means ± SD of n=1 experiment performed in triplicates.

[5] = molecular target: cellular TMPRSS2 activity, Caco-2 cells (Homo sapiens, UniProt O15393); conditions: normalized, 0 nM = 100
Procedure: In total, 10,000 Caco-2 cells (ATCC) in 100 µL EMEM medium supplemented with 10% FBS, 100 U/mL penicillin, […] streptomycin, and 2 mM glutamine (all Invitrogen, Germany) were seeded per well in a 96-well plate and incubated at 37 °C for 4 days until full confluency of the cells. The cells were washed two times with PBS and EMEM medium without FBS was added. […] The fluorescence intensity was measured as described above. In all, 20,000 HEK293T cells (ATCC) were seeded in 100 µL DMEM supplemented with 10% FBS, 100 U/mL penicillin, […] streptomycin, and 2 mM glutamine. […] After 14 h, transfection mix was removed from the cells and 80 µL fresh medium without FBS and 10 µL inhibitors were added (final concentration 50 µM). […] Fluorescence intensity was measured after 2 h at 37 °C as described above.

[6] = test system: lentiviral pseudoparticles carrying SARS-CoV-2 Alpha (B.1.1.7) spike, Caco-2 cells; assay type: cell-based; conditions: for SARS-CoV-2 spike driven entry, Mean (0 nM = 100): Fig. 5b

Sequence of cellular TMPRSS2 activity, Caco-2 cells (O15393 whole entry): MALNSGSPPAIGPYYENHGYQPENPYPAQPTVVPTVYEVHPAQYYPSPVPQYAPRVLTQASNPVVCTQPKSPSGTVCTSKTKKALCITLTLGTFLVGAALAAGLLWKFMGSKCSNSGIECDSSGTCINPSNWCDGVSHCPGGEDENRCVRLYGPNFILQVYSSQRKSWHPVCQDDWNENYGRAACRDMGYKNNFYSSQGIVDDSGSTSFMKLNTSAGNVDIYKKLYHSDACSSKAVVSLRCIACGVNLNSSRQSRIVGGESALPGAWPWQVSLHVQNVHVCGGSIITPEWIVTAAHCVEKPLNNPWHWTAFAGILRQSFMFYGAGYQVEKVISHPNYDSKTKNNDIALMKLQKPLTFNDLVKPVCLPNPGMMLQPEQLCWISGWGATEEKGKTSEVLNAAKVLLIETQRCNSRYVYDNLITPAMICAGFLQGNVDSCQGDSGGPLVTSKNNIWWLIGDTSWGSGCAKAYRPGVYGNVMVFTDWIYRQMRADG
Sequence of TMPRSS2 (O15393 whole entry): as above

CN(C)C(=O)COC(=O)Cc1ccc(OC(=O)c2ccc(NC(=N)N)cc2)cc1 [CM, camostat mesylate, reference compound]
matriptase activity, Mean (Fig. 2b) ([1]; 0.05 nM): 100.491
matriptase activity, Mean (Fig. 2b) ([1]; 0.1 nM): 98.1997
matriptase activity, Mean (Fig. 2b) ([1]; 0.2 nM): 86.1702
matriptase activity, Mean (Fig. 2b) ([1]; 1 nM): 58.838
matriptase activity, Mean (Fig. 2b) ([1]; 10 nM): 4.828
matriptase activity, Mean (Fig. 2b) ([1]; 1000 nM): 0.2455
matriptase activity, Mean (Fig. 2b) ([1]; 50000 nM): 0.08183
matriptase activity, Mean (Fig. 2b) ([1]; 500000 nM): 0.1637
Ki ([1]; 30 min preincubation, substrate Boc-Gln-Ala-Arg-AMC): 0.6 nM
IC50 ([2]; read-out: IC50 SARS-CoV-2 Beta): 9310 nM
IC50 ([2]; read-out: IC50 SARS-CoV-2 Beta (text)): 9300 nM
IC50 ([3]; Caco-2 cells, luciferase 2 days post transduction, read-out: IC50 pseudotyped lentivirus Delta): 85.5 nM
SARS-CoV-2 spike driven entry, Mean (0 nM = 100) ([3]; compound 3.2 nM): 83.3031
SARS-CoV-2 spike driven entry, Mean (0 nM = 100) ([3]; compound 16 nM): 73.1168
SARS-CoV-2 spike driven entry, Mean (0 nM = 100) ([3]; compound 80 nM): 52.0145
SARS-CoV-2 spike driven entry, Mean (0 nM = 100) ([3]; compound 400 nM): 29.5018
SARS-CoV-2 spike driven entry, Mean (0 nM = 100) ([3]; compound 2000 nM): 11.0315
SARS-CoV-2 spike driven entry, Mean (0 nM = 100) ([3]; compound 10000 nM): 3.058
SARS-CoV-2 spike driven entry, Mean (0 nM = 100) ([3]; compound 50000 nM): 0.6818
Residual TMPRSS2 activity, Mean (0 nM = 100) ([4]; inhibitor 0.0167 nM, 0 min in cell culture medium): 104.51
Residual TMPRSS2 activity, Mean (0 nM = 100) ([4]; inhibitor 0.0167 nM, 30 min in cell culture medium): 108.071
Residual TMPRSS2 activity, Mean (0 nM = 100) ([4]; inhibitor 0.0167 nM, 60 min in cell culture medium): 94.6283
Residual TMPRSS2 activity, Mean (0 nM = 100) ([4]; inhibitor 0.0167 nM, 120 min in cell culture medium): 101.99
Residual TMPRSS2 activity, Mean (0 nM = 100) ([4]; inhibitor 0.0167 nM, 24 h in cell culture medium): 104.987
Residual TMPRSS2 activity, Mean (0 nM = 100) ([4]; inhibitor 0.0167 nM, 10 d in cell culture medium): 98.7798
Residual TMPRSS2 activity, Mean (0 nM = 100) ([4]; inhibitor 0.0167 nM, positive ctrl): 112.676
Residual TMPRSS2 activity, Mean (0 nM = 100) ([4]; inhibitor 0.167 nM, 0 min in cell culture medium): 93.733
Residual TMPRSS2 activity, Mean (0 nM = 100) ([4]; inhibitor 0.167 nM, 30 min in cell culture medium): 95.4083
Residual TMPRSS2 activity, Mean (0 nM = 100) ([4]; inhibitor 0.167 nM, 60 min in cell culture medium): 77.5396
Residual TMPRSS2 activity, Mean (0 nM = 100) ([4]; inhibitor 0.167 nM, 120 min in cell culture medium): 90.8064
Residual TMPRSS2 activity, Mean (0 nM = 100) ([4]; inhibitor 0.167 nM, 24 h in cell culture medium): 102.761
Residual TMPRSS2 activity, Mean (0 nM = 100) ([4]; inhibitor 0.167 nM, 10 d in cell culture medium): 99.2067
Residual TMPRSS2 activity, Mean (0 nM = 100) ([4]; inhibitor 0.167 nM, positive ctrl): 96.1679
Residual TMPRSS2 activity, Mean (0 nM = 100) ([4]; inhibitor 1.665 nM, 0 min in cell culture medium): 49.6948
Residual TMPRSS2 activity, Mean (0 nM = 100) ([4]; inhibitor 1.665 nM, 30 min in cell culture medium): 47.8364
Residual TMPRSS2 activity, Mean (0 nM = 100) ([4]; inhibitor 1.665 nM, 60 min in cell culture medium): 26.9293
Residual TMPRSS2 activity, Mean (0 nM = 100) ([4]; inhibitor 1.665 nM, 120 min in cell culture medium): 28.8645
Residual TMPRSS2 activity, Mean (0 nM = 100) ([4]; inhibitor 1.665 nM, 24 h in cell culture medium): 90.2986
Residual TMPRSS2 activity, Mean (0 nM = 100) ([4]; inhibitor 1.665 nM, 10 d in cell culture medium): 96.8623
Residual TMPRSS2 activity, Mean (0 nM = 100) ([4]; inhibitor 1.665 nM, positive ctrl): 28.3437
Residual TMPRSS2 activity, Mean (0 nM = 100) ([4]; inhibitor 16.65 nM, 0 min in cell culture medium): 3.839
Residual TMPRSS2 activity, Mean (0 nM = 100) ([4]; inhibitor 16.65 nM, 30 min in cell culture medium): 20.3269
Residual TMPRSS2 activity, Mean (0 nM = 100) ([4]; inhibitor 16.65 nM, 60 min in cell culture medium): 1.937
Residual TMPRSS2 activity, Mean (0 nM = 100) ([4]; inhibitor 16.65 nM, 120 min in cell culture medium): 2.211
Residual TMPRSS2 activity, Mean (0 nM = 100) ([4]; inhibitor 16.65 nM, 24 h in cell culture medium): 42.5007
Residual TMPRSS2 activity, Mean (0 nM = 100) ([4]; inhibitor 16.65 nM, 10 d in cell culture medium): 95.3646
Residual TMPRSS2 activity, Mean (0 nM = 100) ([4]; inhibitor 16.65 nM, positive ctrl): 3.3573
Residual TMPRSS2 activity, Mean (0 nM = 100) ([4]; inhibitor 166.5 nM, 0 min in cell culture medium): -1.499
Residual TMPRSS2 activity, Mean (0 nM = 100) ([4]; inhibitor 166.5 nM, 30 min in cell culture medium): -2.333
Residual TMPRSS2 activity, Mean (0 nM = 100) ([4]; inhibitor 166.5 nM, 60 min in cell culture medium): -2.406
Residual TMPRSS2 activity, Mean (0 nM = 100) ([4]; inhibitor 166.5 nM, 120 min in cell culture medium): -2.5978
Residual TMPRSS2 activity, Mean (0 nM = 100) ([4]; inhibitor 166.5 nM, 24 h in cell culture medium): 5.263
Residual TMPRSS2 activity, Mean (0 nM = 100) ([4]; inhibitor 166.5 nM, 10 d in cell culture medium): 97.9296
Residual TMPRSS2 activity, Mean (0 nM = 100) ([4]; inhibitor 166.5 nM, positive ctrl): -2.042
Residual TMPRSS2 activity, Mean (0 nM = 100) ([4]; inhibitor 1665 nM, 0 min in cell culture medium): -4.334
Residual TMPRSS2 activity, Mean (0 nM = 100) ([4]; inhibitor 1665 nM, 30 min in cell culture medium): -4.917
Residual TMPRSS2 activity, Mean (0 nM = 100) ([4]; inhibitor 1665 nM, 60 min in cell culture medium): -4.534
Residual TMPRSS2 activity, Mean (0 nM = 100) ([4]; inhibitor 1665 nM, 120 min in cell culture medium): -4.182
Residual TMPRSS2 activity, Mean (0 nM = 100) ([4]; inhibitor 1665 nM, 24 h in cell culture medium): 0.9545
Residual TMPRSS2 activity, Mean (0 nM = 100) ([4]; inhibitor 1665 nM, 10 d in cell culture medium): 88.1928
Residual TMPRSS2 activity, Mean (0 nM = 100) ([4]; inhibitor 1665 nM, positive ctrl): -4.2458
cellular protease activity on Caco-2 cells, Mean (Fig. 4a) ([5]; 0.1 nM): 103.704
cellular protease activity on Caco-2 cells, Mean (Fig. 4a) ([5]; 1 nM): 98.7654
cellular protease activity on Caco-2 cells, Mean (Fig. 4a) ([5]; 10 nM): 63.4921
cellular protease activity on Caco-2 cells, Mean (Fig. 4a) ([5]; 100 nM): 38.9771
cellular protease activity on Caco-2 cells, Mean (Fig. 4a) ([5]; 1000 nM): 21.8695
cellular protease activity on Caco-2 cells, Mean (Fig. 4a) ([5]; 10000 nM): 6.173
cellular protease activity on Caco-2 cells, Mean (Fig. 4a) ([5]; 100000 nM): 1.764
IC50 ([6]; Caco-2 cells, luciferase 2 days post transduction, read-out: IC50 pseudotyped lentivirus Alpha): 98.7 nM
SARS-CoV-2 spike driven entry, Mean (0 nM = 100) ([6]; compound 3.2 nM): 71.733
SARS-CoV-2 spike driven entry, Mean (0 nM = 100) ([6]; compound 16 nM): 72.519
SARS-CoV-2 spike driven entry, Mean (0 nM = 100) ([6]; compound 80 nM): 51.5305
SARS-CoV-2 spike driven entry, Mean (0 nM = 100) ([6]; compound 400 nM): 39.483
SARS-CoV-2 spike driven entry, Mean (0 nM = 100) ([6]; compound 2000 nM): 18.526
SARS-CoV-2 spike driven entry, Mean (0 nM = 100) ([6]; compound 10000 nM): 4.853
SARS-CoV-2 spike driven entry, Mean (0 nM = 100) ([6]; compound 50000 nM): 1.159
